This is an account of results in patent US10030016B2 (Sunesis Pharmaceuticals, Inc., priority 2009, dated 2018).

SMILES strings stand for the structures. Counter-ions that a name gives are not always drawn. Like-named read-outs stand apart in the source and are kept apart here. A value given as a limit tells only on which side of the number the result lay.

The target in one experiment is PDK1 (Homo sapiens (Human), UniProt O15530). Put plainly: PDK1 kinase assay (coupled PDK1/AKT/FAM-crosstide assay, IMAP fluorescence polarization). It counts as biochemical. The essentials: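 GST-tagged PDK1 (aa 51-359, 0.75 nM) was coupled to unphosphorylated GST-AKT2 140-467-PIFtide (10 nM) and 100 nM FAM-crosstide at 40 μM ATP, in Tris pH 7.2 buffer, for 30 min at 25 °C. Crosstide phosphorylation was read by IMAP fluorescence polarization (ΔmP) and fitted with a 4-parameter curve.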
PDK1, sequence (O15530 51-359): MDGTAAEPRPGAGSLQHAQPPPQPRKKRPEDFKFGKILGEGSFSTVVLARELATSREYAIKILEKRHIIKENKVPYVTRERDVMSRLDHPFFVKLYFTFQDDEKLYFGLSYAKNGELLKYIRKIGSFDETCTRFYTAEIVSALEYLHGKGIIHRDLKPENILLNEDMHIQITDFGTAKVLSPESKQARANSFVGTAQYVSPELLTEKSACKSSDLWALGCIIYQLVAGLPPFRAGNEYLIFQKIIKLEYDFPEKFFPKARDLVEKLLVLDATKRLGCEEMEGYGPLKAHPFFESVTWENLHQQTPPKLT

Experiment [1] deals with phospho-akt (Thr308) in PC-3 cells. Put plainly: Inhibition of phospho-akt (Thr308) in PC-3 cells, MSD phospho-akt 308 ELISA kit. Type of experiment: cell-based. The settings on record: Homo sapiens, 2 hours, no serum, read-out: EC50. Summed up: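 PC-3 cells (15,000/well, overnight in 10% FBS medium) treated 2 h with three-fold diluted compounds in serum-free medium; DMSO high and 5 μM wortmannin low controls. Lysates captured on BSA-blocked MSD plates overnight at 4 °C, then 1 h antibody detection at RT; phospho-Akt Thr308 read by MSD electrochemiluminescence.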
A general note: ELISA stands for enzyme-linked immunosorbent assay.

[2] abbreviates: inhibition of phospo-PDK1 in vitro.
Where [3] appears, read: inhibition of P308 Akt in PC-3 cells, MSD.
[4] abbreviates: inhibition of P308 Akt in PC-3 cells using MSD.

In the case of `O=C(NCc1ccc(F)c(F)c1)c1cccnc1NCc1ccc(-c2c[nH]c3ncncc23)s1` [Example 4.7, 2-(((5-(7H-pyrrolo[2,3-d]pyrimidin-5-yl)thiophen-2-yl)methyl)amino)-N-(3,4-difluorobenzyl)nicotinamide], the IC50 (in general, the concentration that inhibits the measured activity by half) at PDK1 (setting [2]) lay within 100 to 1000 nM. Also, the 50% effective concentration (EC50) (as a rule, the concentration giving half of the maximal effect) in experiment [1] (setting [3]) was in the range of 1000 to 10000 nM.

On PDK1 (inhibition of PDK1 in vitro), `Nc1ccc(-c2ccc(CNc3ncc(C(F)(F)F)cc3C(=O)NCc3ccc(F)c(F)c3)cc2)cn1` [Example 370, 2-(4-(6-aminopyridin-3-yl)benzylamino)-N-(3,4-difluorobenzyl)-5-(trifluoro-methyl)nicotinamide] displayed an IC50 of less than 100 nM. Besides, in experiment [1] (setting [4]), the concentration giving a half-maximal response (EC50) lay within 1000 to 10000 nM.

`C[C@H](NC(=O)c1cc(I)cnc1NCc1ccc(-c2ccc3ncnc(N)c3c2)s1)c1ccc(F)c(F)c1` [Ex. 7.21.1, 2-({[5-(4-aminoquinazolin-6-yl)thiophen-2-yl]methyl}amino)-N-[(1S)-1-(3,4-difluorophenyl)ethyl]-5-iodopyridine-3-carboxamide] showed an IC50 against PDK1 (setting [2]) of 100 to 1000 nM. Besides, the 50% effective concentration (EC50) in experiment [1] (setting [3]) is less than 1000 nM.

On PDK1 (setting [2]), `Nc1ncnc2ccc(-c3ccc(CNc4ncccc4C(=O)NCc4ccc(F)c(F)c4F)s3)cc12` [Example 3.16, 2-({[5-(4-aminoquinazolin-6-yl)thiophen-2-yl]methyl}amino)-N-(2,3,4-trifluorobenzyl)pyridine-3-carboxamide (TFA salt)] showed a 50% inhibitory concentration (IC50) of less than 100 nM. In addition, in experiment [1] (setting [3]), the EC50 fell in the range of 1000 to 10000 nM.

At PDK1 (setting [2]), `C[C@H](COc1ccc2c(c1)NC(=O)/C2=C\c1cnc[nH]1)Nc1ncccc1C(=O)NCc1ccc(F)c(F)c1` [Example 24, (R,Z)-2-(1-(3-((1H-imidazol-5-yl)methylene)-2-oxoindolin-6-yloxy)propan-2-ylamino)-N-(3,4-difluorobenzyl)nicotinamide] gave an IC50 of less than 100 nM. Further, the EC50 in experiment [1] (setting [3]) is 1000 to 10000 nM.

Turning to `C[C@H](NC(=O)c1nc(C#N)cnc1NCc1ccc(-c2cnc(N)c(N3CCC[C@@H](N)C3)n2)cc1)c1ccc(F)c(F)c1` [Example 190, 3-{4-[5-Amino-6-((R)-3-amino-piperidin-1-yl)-pyrazin-2-yl]-benzylamino}-6-cyano-pyrazine-2-carboxylic acid [(S)-1-(3,4-difluoro-phenyl)-ethyl]-amide], at PDK1 (inhibition of PDK1 in vitro), the half-inhibitory concentration (IC50) is less than 100 nM. In addition, the EC50 in experiment [1] (setting [4]) was in the range of 1000 to 10000 nM.

Regarding `Nc1ncc(-c2ccc(CNc3ncc(C(F)(F)F)cc3C(=O)Nc3ccc(F)cc3)cc2)nc1CC1CCNC1` (stereo not shown) [Example 186, 2-[4-(5-Amino-6-pyrrolidin-3-ylmethyl-pyrazin-2-yl)-benzylamino]-N-(4-fluoro-phenyl)-5-trifluoromethyl-nicotinamide], the half-maximal inhibitory concentration (IC50) at PDK1 (inhibition of PDK1 in vitro) was less than 100 nM. Moreover, the EC50 in experiment [1] (setting [4]) is less than 1000 nM.

As to `CC(C)c1ccc(NC(=O)c2cc(C(F)(F)F)cnc2NCc2ccc(-c3cnc4[nH]nc(N)c4c3)cc2)cc1` [Example 280, 2-(4-(3-amino-1H-pyrazolo [3,4-b]pyridin-5-yl)benzylamino)-N-(4-isopropylphenyl)-5-(trifluoromethyl)nicotinamide], the IC50 at PDK1 (inhibition of PDK1 in vitro) is 100 to 1000 nM. In addition, the EC50 in experiment [1] (setting [4]) was in the range of 1000 to 10000 nM.

`C[C@H](NC(=O)c1cc(C#N)cnc1NCc1ccc(-c2cnc(N)c(CC3CCNC3)n2)cc1)c1ccc(F)cc1` (stereo partly drawn) [Example 185, 2-[4-(5-Amino-6-pyrrolidin-3-ylmethyl-pyrazin-2-yl)-benzylamino]-5-cyano-N-[(S)-1-(4-fluoro-phenyl)-ethyl]-nicotinamide] came in with a 50% inhibitory concentration (IC50) at PDK1 (inhibition of PDK1 in vitro) of less than 100 nM. In experiment [1] (setting [4]), the 50% effective concentration (EC50) was less than 1000 nM.

Turning to `Nc1ncnc2ccc(-c3ccc(CNc4ncc(F)cc4C(=O)NCc4ccc(F)c(F)c4)s3)cc12` [Ex. 7.3.1], at PDK1 (setting [2]), the IC50 was less than 100 nM. Further, the EC50 in experiment [1] (setting [3]) is less than 1000 nM.

With `C[C@H](NC(=O)c1cc(C#N)cnc1NCc1ccc(-c2cn(S(=O)(=O)c3ccccc3)nc2N)cc1)c1ccc(F)cc1` [Example 143, (S)-2-(4-(3-amino-1-(phenylsulfonyl)-1H-pyrazol-4-yl)benzylamino)-5-cyano-N-(1-(4-fluorophenyl)ethyl) nicotinamide], the IC50 against PDK1 (inhibition of PDK1 in vitro) is greater than 5000 nM. Moreover, the half-maximal effective concentration (EC50) in experiment [1] (setting [4]) was greater than 10000 nM.

Regarding `Nc1ncnc2ccc(-c3ccc(CNc4ncccc4C(=O)NCc4cccnc4)s3)cc12` [Example 3.37, 2-({[5-(4-aminoquinazolin-6-yl)thiophen-2-yl]methyl}amino)-N-(pyridin-3-ylmethyl) pyridine-3-carboxamide (TFA salt)], at PDK1 (setting [2]), the IC50 lay within 100 to 1000 nM. In addition, in experiment [1] (setting [3]), the concentration for a half-maximal effect (EC50) fell in the range of 1000 to 10000 nM.

The compound `C[C@H](NC(=O)c1nc(C#N)cnc1NCc1ccc(-c2cnc(N)c(NCCN)n2)cc1)c1ccc(F)c(F)c1` [Example 195, 3-{4-[5-Amino-6-(2-amino-ethylamino)-pyrazin-2-yl]-benzylamino}-6-cyano-pyrazine-2-carboxylic acid [(S)-1-(3,4-difluoro-phenyl)-ethyl]-amide] showed an IC50 against PDK1 (inhibition of PDK1 in vitro) of less than 100 nM. Also, in experiment [1] (setting [4]), the EC50 is less than 1000 nM.

As for `C[C@H](NC(=O)c1cc(C#N)cnc1NCc1ccc(-c2cnc(N)c(C(=O)NC3CC3)n2)cc1)c1ccc(F)cc1` [Example 218, (S)-3-amino-6-(4-((5-cyano-3-(1-(4-fluorophenyl)ethylcarbamoyl)pyridin-2-ylamino)methyl)phenyl)-N-cyclopropylpyrazine-2-carboxamide], the concentration for half-maximal inhibition (IC50) on PDK1 (inhibition of PDK1 in vitro) is less than 100 nM. The 50% effective concentration (EC50) in experiment [1] (setting [4]) was less than 1000 nM.

On PDK1 (inhibition of PDK1 in vitro), `C[C@H](NC(=O)c1cc(C#N)cnc1NCc1cnc(-c2cnc3[nH]ncc3c2)nc1)c1ccc(F)cc1` [Example 69, 5-Cyano-N-[(S)-1-(4-fluoro-phenyl)-ethyl]-2-{[2-(1H-pyrazolo[3,4-b]pyridin-5-yl)-pyrimidin-5-ylmethyl]-amino}-nicotinamide] had an IC50 of 100 to 1000 nM. The EC50 in experiment [1] (setting [4]) is greater than 10000 nM.

Consider `CC(C)(O)Cn1cc(-c2ccc(CNc3ncc(C(F)(F)F)cc3C(=O)Nc3ccc(F)cc3)cc2)c2c(N)ncnc21` [Example 405, 2-(4-(4-amino-7-(2-hydroxy-2-methylpropyl)-7H-pyrrolo[2,3-d]pyrimidin-5-yl)benzylamino)-N-(4-fluorophenyl)-5-(trifluoromethyl)nicotinamide], for which the half-maximal inhibitory concentration (IC50) at PDK1 (inhibition of PDK1 in vitro) was less than 100 nM. Besides, in experiment [1] (setting [4]), the EC50 lay within 1000 to 10000 nM.

For the compound `C[C@H](NC(=O)c1cccnc1NCc1ncc(-c2ccc3ncc4ncn(C)c4c3c2)s1)c1ccc(F)c(F)c1` [Example 385, N-[(S)-1-(3,4-Difluoro-phenyl)-ethyl]-2-{[5-(1-methyl-1H-imidazo[4,5-c]quinolin-8-yl)-thiazol-2-ylmethyl]-amino}-nicotinamide], the IC50 on PDK1 (inhibition of PDK1 in vitro) is less than 100 nM. Further, in experiment [1] (setting [4]), the concentration giving a half-maximal response (EC50) was less than 1000 nM.

As to `C[C@H](NC(=O)c1cccnc1NCc1ccc(-c2cnc3[nH]c(=O)[nH]c3c2)cc1)c1ccc(F)cc1` [Example 359, (S)-N-(1-(4-fluorophenyl)ethyl)-2-(4-(2-oxo-2,3-dihydro-1H-imidazo[4,5-b]pyridin-6-yl)benzylamino) nicotinamide], the concentration for half-maximal inhibition (IC50) against PDK1 (inhibition of PDK1 in vitro) is less than 100 nM. Moreover, the EC50 in experiment [1] (setting [4]) is less than 1000 nM.

`Nc1ncnc2ccc(-c3ccc(CNc4nc(Cl)cc5ncn(Cc6ccc(F)c(F)c6)c(=O)c45)s3)cc12` [Ex. 7.17, 5-({[5-(4-aminoquinazolin-6-yl)thiophen-2-yl]methyl}amino)-7-chloro-N-3-(3,4-difluorobenzyl)pyrido [4,3-d]pyrimidin-4(3H)-one]: at PDK1 (setting [2]), the IC50 was less than 100 nM. In addition, in experiment [1] (setting [3]), the EC50 was 1000 to 10000 nM.

`C[C@H](NC(=O)c1cc(C(F)(F)F)cnc1NC/C=C/c1ccc2c(c1)NC(=O)/C2=C\c1cnc[nH]1)c1ccc(F)c(F)c1` [Example 15.2, 2-((E)-3-((Z)-3-((1H-imidazol-5-yl)methylene)-2-oxoindolin-6-yl)allylamino)-N-((S)-1-(3,4-difluorophenyl)ethyl)-5-(trifluoromethyl)nicotinamide] gave a concentration for half-maximal inhibition (IC50) at PDK1 (setting [2]) of 100 to 1000 nM. For the same compound, the half-maximal effective concentration (EC50) in experiment [1] (setting [3]) was less than 1000 nM.

Compound `C[C@H](NC(=O)c1nc(C#N)cnc1NCc1ccc(-c2cnc3[nH]ncc3c2)cc1)c1ccc(F)cc1` [Example 389, 6-Cyano-3-[4-(1H-pyrazolo [3,4-b]pyridin-5-yl)-benzylamino]-pyrazine-2-carboxylic acid [(S)-1-(4-fluoro-phenyl)-ethyl]-amide] displayed a half-maximal inhibitory concentration (IC50) against PDK1 (inhibition of PDK1 in vitro) of less than 100 nM. For the same compound, the EC50 in experiment [1] (setting [4]) is less than 1000 nM.

The compound `C[C@H](NC(=O)c1cc(C#N)cnc1NCc1ccc(-c2cnc(N)c(C(=O)NCCCS(C)(=O)=O)n2)cc1)c1ccc(F)cc1` [Example 208] registered an IC50 against PDK1 (inhibition of PDK1 in vitro) of less than 100 nM. For the same compound, the EC50 in experiment [1] (setting [4]) is less than 1000 nM.

With `Cn1cnc(CNC(=O)c2cc(C(F)(F)F)cnc2NCc2ccc(-c3cnc4[nH]nc(N)c4c3)cc2)c1` [Example 270, 2-(4-(3-amino-1H-pyrazolo [3,4-b]pyridin-5-yl)benzylamino)-N-((1-methyl-1H-imidazol-4-yl)methyl)-5-(trifluoromethyl) nicotinamide], the half-maximal inhibitory concentration (IC50) at PDK1 (inhibition of PDK1 in vitro) lay in the range of 1000 to 5000 nM. Also, the EC50 in experiment [1] (setting [4]) was in the range of 1000 to 10000 nM.

Take `O=C(NCc1ccc(F)cc1)c1cccnc1NCc1cccc(-c2c[nH]c3ncccc23)c1` [Example 1.6, 2-(3-(1H-pyrrolo[2,3-b]pyridin-3-yl)benzylamino)-N-(4-fluorobenzyl)nicotinamide]: the concentration for half-maximal inhibition (IC50) at PDK1 (setting [2]) is less than 100 nM. In experiment [1] (setting [3]), the half-maximal effective concentration (EC50) was in the range of 1000 to 10000 nM.

At PDK1 (inhibition of PDK1 in vitro), `Nc1n[nH]c2ncc(-c3ccc(CNc4ncc(C(F)(F)F)cc4C(=O)Nc4ccccn4)cc3)cc12` [Example 274] returned an IC50 of less than 100 nM. For the same compound, in experiment [1] (setting [4]), the EC50 lay in the range of 1000 to 10000 nM.

With `Nc1ncnc2ccc(-c3ccc(CNc4ncccc4C(=O)Nc4cc(F)cc(F)c4)s3)cc12` [Example 3.85, 2-({[5-(4-aminoquinazolin-6-yl)thiophen-2-yl]methyl}amino)-N-(3,5-difluorophenyl)-pyridine-3-carboxamide (TFA salt)], on PDK1 (setting [2]), the IC50 was in the range of 1000 to 5000 nM. Moreover, in experiment [1] (PC-3, 2 h, inhibition of P308 Akt in PC-3 cells, MSD), the EC50 is greater than 10000 nM.
